# In ChEMBL document CHEMBL1128771 (Bioorg Med Chem Lett, 1995):
# pIC50, pKi: −log10 of the molar value.
# What was measured:
# [1] = Ability to inhibit proliferation in human lymphocytes by mixed lymphocyte reaction (MLR); type: functional, cell-based
# [2] = biological target: Dihydroorotate dehydrogenase (quinone), mitochondrial (Homo sapiens, UniProt Q02127)
# Dihydroorotate dehydrogenase (quinone), mitochondrial, sequence (Q02127 whole entry): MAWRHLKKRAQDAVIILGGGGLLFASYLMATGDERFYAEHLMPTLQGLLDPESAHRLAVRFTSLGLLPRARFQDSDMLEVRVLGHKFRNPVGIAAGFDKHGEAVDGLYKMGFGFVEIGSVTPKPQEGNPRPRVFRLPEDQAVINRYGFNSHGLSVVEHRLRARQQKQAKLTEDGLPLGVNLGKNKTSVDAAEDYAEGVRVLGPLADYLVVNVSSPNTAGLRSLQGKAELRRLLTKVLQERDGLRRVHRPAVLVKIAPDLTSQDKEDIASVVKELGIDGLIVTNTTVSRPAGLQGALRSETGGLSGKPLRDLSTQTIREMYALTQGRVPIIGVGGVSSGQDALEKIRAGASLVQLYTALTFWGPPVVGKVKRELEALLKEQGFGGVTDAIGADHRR
# Description: Inhibition measurement of orotate formation from radiolabeled dihydroorotate, using partially purified DHODase isolated from human liver.
pKi [2],Compound,pIC50 ([1]; Homo sapiens),pIC50 [1]
< 6.30,Cc1c(-c2ccccc2)nc2ccc(F)cc2c1C(=O)O,< 6.30,
6.82,Cc1c(-c2ccc(-c3ccccc3)cc2)nc2c(Cl)cccc2c1C(=O)O,< 6.30,
8.08,Cc1c(-c2ccc(-c3ccccc3)cc2)nc2ccc(C(F)(F)F)cc2c1C(=O)O,8.15,
7.60,Cc1c(-c2ccc(-c3ccccc3)cc2)nc2cccc(Cl)c2c1C(=O)O,6.82,
6.66,Cc1c(-c2ccc(-c3ccccc3)cc2)nc2cc(Cl)ccc2c1C(=O)O,< 6.30,
< 6.30,Cc1c(-c2cccc(-c3ccccc3)c2)nc2ccc(F)cc2c1C(=O)O,< 6.30,
< 6.30,Cc1c(-c2ccc(-c3ccccc3)cc2)nc2ccc(F)cc2c1CO,< 6.30,
< 6.30,Cc1c(-c2ccc(-c3ccccc3)cc2)nc2ccc(F)cc2c1C(N)=O,< 6.30,
6.68,Cc1c(-c2ccc(-c3ccc(F)cc3)cc2)nc2ccc(F)cc2c1C(=O)O,6.59,
7.62,Cc1ccc(-c2ccc(-c3nc4ccc(F)cc4c(C(=O)O)c3C)cc2)cc1,6.82,
< 6.30,Cc1c(-c2ccc(-c3ccccc3)cc2)nc2ccc(F)cc2c1O,< 6.30,
< 6.30,COC(=O)c1ccc2nc(-c3ccc(-c4ccccc4)cc3)c(C)c(C(=O)O)c2c1,< 6.30,
7.70,Cc1c(-c2ccc(-c3ccccc3)cc2)nc2ccc(Cl)cc2c1C(=O)O,7.46,
6.57,CSc1ccc2nc(-c3ccc(-c4ccccc4)cc3)c(C)c(C(=O)O)c2c1,< 6.30,
7.30,Cc1c(-c2ccc(-c3cccc(F)c3)cc2)nc2ccc(F)cc2c1C(=O)O,7.70,
< 6.30,Cc1c(-c2ccc(-c3ccccc3)cc2)nc2ccc(O)cc2c1C(=O)O,< 6.30,
< 6.30,CC(=O)OCc1c(C)c(-c2ccc(-c3ccccc3)cc2)nc2ccc(F)cc12,< 6.30,
7.42,Cc1c(-c2ccc(-c3ccc(Br)cc3)cc2)nc2ccc(F)cc2c1C(=O)O,< 6.30,
7.52,CCc1c(-c2ccc(-c3ccccc3)cc2)nc2ccc(F)cc2c1C(=O)O,6.68,
6.40,COC(=O)c1c(C)c(-c2ccc(-c3ccccc3)cc2)nc2ccc(F)cc12,< 6.30,
7.89,COc1c(-c2ccc(-c3ccccc3)cc2)nc2ccc(F)cc2c1C(=O)O,6.60,
8.00,Cc1ccc2nc(-c3ccc(-c4ccccc4)cc3)c(C)c(C(=O)O)c2c1,6.42,
6.85,Cc1c(-c2ccc(-c3ccc(Cl)cc3)cc2)nc2ccc(F)cc2c1C(=O)O,< 6.30,
6.38,Cc1c(-c2ccc(-c3ccccc3F)cc2)nc2ccncc2c1C(=O)O,< 6.30,
< 6.30,CC(=O)Nc1ccc2nc(-c3ccc(-c4ccccc4)cc3)c(C)c(C(=O)O)c2c1,< 6.30,
7.89,CSc1c(-c2ccc(-c3ccccc3)cc2)nc2ccc(F)cc2c1C(=O)O,7.74,

# The next lines start with the compound.
Compound,pKi [2],pIC50 ([1]; Homo sapiens),pIC50 [1]
Cc1c(-c2ccc(-c3ccccc3)cc2)nc2ccccc2c1C(=O)O,,,6.74
O=C(O)c1cc(-c2ccc(-c3ccccc3)cc2)nc2ccc(F)cc12,8.00,6.82,
O=C(O)c1cc(-c2ccc(-c3ccccc3)cc2)nc2sccc12,6.68,< 6.30,
Cc1c(-c2ccc3ccccc3c2)nc2ccc(F)cc2c1C(=O)O,6.52,< 6.30,
Cc1c(-c2cccc3ccccc23)nc2ccc(F)cc2c1C(=O)O,< 6.30,< 6.30,
Cc1c(-c2ccc(-c3ccc(O)cc3F)cc2)nc2ccc(F)cc2c1C(=O)O,7.96,6.52,
O=C(O)c1c2c(nc3ccc(F)cc13)-c1ccc(-c3ccccc3)cc1CC2,7.77,7.85,
Cc1c(-c2ccc(-c3ccccc3)s2)nc2ccc(F)cc2c1C(=O)O,6.41,< 6.30,
CCCCCCc1ccc(-c2nc3ccc(F)cc3c(C(=O)O)c2C)cc1,7.22,< 6.30,
Cc1c(-c2ccc(-n3ccnc3)cc2)nc2ccc(F)cc2c1C(=O)O,< 6.30,< 6.30,
Cc1c(-c2ccc(Oc3ccccc3)cc2)nc2ccc(F)cc2c1C(=O)O,7.54,6.30,
Cc1c(-c2ccc(C3CCCCC3)cc2)nc2ccc(F)cc2c1C(=O)O,7.55,7.60,
Cc1c(-c2ccc(-c3cccs3)cc2)nc2ccc(F)cc2c1C(=O)O,7.25,6.46,
Cc1c(-c2ccc(-c3ccc(C(F)(F)F)cc3)cc2)nc2ccc(F)cc2c1C(=O)O,6.64,< 6.30,
Cc1c(-c2ccc(-c3ccccc3F)cc2)nc2ncccc2c1C(=O)O,6.68,< 6.30,
Cc1c(-c2ccc(C(C)(C)C)cc2)nc2ccc(F)cc2c1C(=O)O,7.40,6.40,
Cc1c(-c2ccc(-c3ccccc3F)cc2)nc2ccc(F)cc2c1C(=O)O [BREQUINAR],,,7.82
Cc1c(CCCCc2ccccc2)nc2ccc(F)cc2c1C(=O)O,< 6.30,< 6.30,
Cc1c(-c2ccc(-c3ccccc3)cc2)nc2ccc(F)cc2c1-n1cnnn1,< 6.30,< 6.30,
O=C(O)c1c(O)c(-c2ccc(-c3ccccc3)cc2)nc2ccc(F)cc12,,< 6.30,
Cc1c(-c2ccc(-c3ccccc3F)cc2)nc2cnccc2c1C(=O)O,7.32,6.54,
Cc1c(-c2ccc(-c3ccccc3F)cc2)nc2cccnc2c1C(=O)O,6.30,< 6.30,
O=C(O)c1cc(-c2ccc(-c3ccccc3)cc2)nc2ocnc12,< 6.30,< 6.30,
Cc1c(-c2ccc(-c3ccccc3F)cc2)nc2nc[nH]c2c1C(=O)O,< 6.30,< 6.30,
Cc1c(-c2ccc(-c3cccnc3)cc2)nc2ccc(F)cc2c1C(=O)O,6.70,< 6.30,
Cn1cnc2c(C(=O)O)cc(-c3ccc(-c4ccccc4)cc3)nc21,< 6.30,< 6.30,
Cc1c(-c2cccc(Oc3ccccc3)c2)nc2ccc(F)cc2c1C(=O)O,7.20,< 6.30,
